The record followed here is US7662825B2, “N-pyrazinyl-phenylsulphonamides and their use in the treatment of chemokine mediated diseases” (AstraZeneca AB, priority 2002, dated 2010).

One may read the melting point as the temperature, or range, at which the solid turns liquid.

On to `COc1ncc(Cl)nc1NS(=O)(=O)c1cccc(Cl)c1` [Example 39, 3-Chloro-N-(6-chloro-3-methoxy-2-pyrazinyl)benezenesulphonamide], for which the melting point fell in the range of 126 to 127 °C. In the case of `COc1nc(OCc2ccc(CN(C)C)o2)cnc1NS(=O)(=O)c1cccc(Cl)c1Cl` [Example 175, 2,3-Dichloro-N-[5-(5-dimethylaminomethyl-2-furanylmethoxy)-3-methoxy-2-pyrazinyl]benzenesulphonamide], the melting point was 114 to 115 °C. As for `COc1nc(SC)cnc1NS(=O)(=O)c1cccc(Cl)c1Cl` [Example 80, 2,3-Dichloro-N-(3-methoxy-5-methylsulphanyl-2-pyrazinyl)benzenesulphonamide], the melting point is 141 to 142 °C. As for `COc1nc(Br)cnc1NS(=O)(=O)c1ccccc1OC(F)(F)F` [Example 49, N-(5-Bromo-3-methoxy-2-pyrazinyl)-2-trifluoromethoxybenezenesulphonamide], the figure is 156 to 157 °C; as for `C#CCOc1nccnc1NS(=O)(=O)c1cccc(Cl)c1Cl` [Example 189, 2,3-Dichloro-N-[3-(2-propynyloxy)-2-pyrazinyl)benzenesulphonamide], 153 to 154 °C; as for `COc1nc(SCC#N)cnc1NS(=O)(=O)c1cccc(Cl)c1Cl` [Example 171, 2,3-Dichloro-N-[5-cyanomethylsulphanyl-3-methoxy-2-pyrazinyl]benzenesulphonamide], 158 to 159 °C. As for `COc1nc(SCCN(C)C)cnc1NS(=O)(=O)c1cccc(Cl)c1Cl` [Example 205, 2,3-Dichloro-N-{5-[2-(dimethylamino)ethylsulphanyl]-3-methoxy-2-pyrazinyl]benzenesulphonamide], the figure is 117 to 118 °C; as for `COc1nc(Cl)cnc1NS(=O)(=O)c1cccc(F)c1Cl` [Example 130, 2-Chloro-N-(5-chloro-3-methoxy-2-pyrazinyl)-3-fluorobenzenesulphonamide], 159 to 159.5 °C; as for `COc1cnc(NS(=O)(=O)c2cccc(Cl)c2Cl)c(OC)n1` [Example 56, 2,3-Dichloro-N-[3,5-dimethoxy-2-pyrazinyl]benzenesulphonamide], 138 to 139 °C. `O=S(=O)(Nc1ncc(Cl)nc1Cl)c1cccc(Cl)c1Cl` [Example 74, 2,3-Dichloro-N-(3,5-dichloro-2-pyrazinyl)benzenesulphonamide] yielded a melting point of 181 to 182 °C. For `O=S(=O)(Nc1ncc(Cl)nc1OCc1ccccn1)c1cccc(Cl)c1Cl` [Example 89, 2,3-dichloro-N-[5-chloro-3-(2-pyridinylmethoxy)-2-pyrazinyl]benzenesulphonamide], the melting point was 147 to 148 °C.

`COc1nc(N2CCOCC2)c(Cl)nc1NS(=O)(=O)c1cccc(Cl)c1Cl` [Example 67, 2,3-Dichloro-N-[6-chloro-3-methoxy-5-(4-morpholinyl)-2-pyrazinyl]benzenesulphonamide] had a melting point of 150 to 151 °C.

The molecule `Cc1cccc(COc2nc(Cl)cnc2NS(=O)(=O)c2cccc(Cl)c2Cl)n1` [Example 93, 2,3-Dichloro-N-[S-chloro-3-(6-methyl-2-pyridinylmethoxy)-2-pyrazinyl]benzenesulphonamide] showed a melting point of 158 to 159 °C. With `COc1nc(N(C)C)c(Cl)nc1NS(=O)(=O)c1cccc(Cl)c1Cl` [Example 69, 2,3-Dichloro-N-[6-chloro-5-dimethylamino-3-methoxy-2-pyrazinyl]benzenesulphonamide], the melting point lay in the range of 145 to 146 °C. As for `NCc1ccc(COc2nccnc2NS(=O)(=O)c2cccc(Cl)c2Cl)o1` [Example 197, N-(3-(5-Aminomethyl-2-furanylmethoxy)-2-pyrazinyl)-2,3-dichlorobenzenesulphonamide], the figure is 199 to 201 °C; as for `COc1nc(Cl)c(Cl)nc1NS(=O)(=O)c1ccc(Cl)cc1Cl` [Example 63, 2,4-Dichloro-N-(5,6-dichloro-3-methoxy-2-pyrazinyl)benzenesulphonamide], 171 to 172 °C; as for `CNCc1ccc(COc2nccnc2NS(=O)(=O)c2cccc(Cl)c2Cl)o1` [Example 183, 2,3-Dichloro-N-[3-(5-methylaminomethyl-2-furanylmethoxy)-2-pyrazinyl]benzenesulphonamide], 198 to 199 °C. As for `COc1nc(Cl)cnc1NS(=O)(=O)c1cccc(Cl)c1F` [Example 122, 3-Chloro-N-(5-chloro-3-methoxy-2-pyrazinyl)-2-fluorobenzenesulphonamide], the melting point was 156 to 157 °C. The value for `COc1nc(SCc2ccccc2Cl)cnc1NS(=O)(=O)c1cccc(Cl)c1Cl` [Example 84, 2,3-Dichloro-N-[5-(2-chlorobenzylsulphanyl)-3-methoxy-2-pyrazinyl]benzenesulphonamide] was 119 to 120 °C; that for `CSCCOc1nc(Cl)cnc1NS(=O)(=O)c1cccc(Cl)c1Cl` [Example 90, 2,3-Dichloro-N-[5-chloro-3-(2-methylsulphanylethoxy)-2-pyrazinyl]benzenesulphonamide] was 140 to 141 °C; that for `COc1nc(SCCN)cnc1NS(=O)(=O)c1cccc(Cl)c1Cl` [Example 173, N-[5-(2-Aminoethylsulphanyl)-3-methoxy-2-pyrazinyl]-2,3-dichlorobenzenesulphonamide] was 189 to 190 °C.

Consider `COC(=O)c1cnc(NS(=O)(=O)c2cccc(Cl)c2Cl)c(OCc2cccnc2)n1` [Example 134, 5-(2,3-Dichlorobenzenesulphonylamino)-6-(3-pyridinylmethoxy)pyrazine-2-carboxylic acid, methyl ester], for which the melting point lay within 209 to 210 °C. `CCOc1cnc(NS(=O)(=O)c2cccc(Cl)c2Cl)c(OC)n1` [Example 166, 2,3-Dichloro-N-(5-ethoxy-3-methoxy-2-pyrazinyl)benzenesulphonamide] gave a melting point of 96 to 97 °C.

Regarding `Cc1c(Cl)cccc1S(=O)(=O)Nc1ncc(Cl)nc1OCc1cccnc1` [Example 95, 3-Chloro-N-[5-chloro-3-(3-pyridinylmethoxy)-2-pyrazinyl]-2-methylbenzenesulphonamide], the melting point was in the range of 192 to 193 °C. The value for `COc1nc(N2CCCC2)cnc1NS(=O)(=O)c1cccc(Cl)c1Cl` [Example 57] was 179 to 180 °C; that for `COc1ncc(C)nc1NS(=O)(=O)c1cccc(Cl)c1Cl` [Example 194, 2,3-Dichloro-N-(3-methoxy-6-methyl-2-pyrazinyl)benzenesulphonamide] was 50 to 60 °C; that for `COc1nccnc1NS(=O)(=O)c1cccc(F)c1Cl` [Example 131, 2-Chloro-3-fluoro-N-(3-methoxy-2-pyrazinyl)benzenesulphonamide] was 144 to 145 °C.

`COc1nc(Br)c(C)nc1NS(=O)(=O)c1cccc(Cl)c1Cl` [Example 118, 2,3-Dichloro-N-[5-bromo-3-methoxy-6-methyl-2-pyrazinyl)benzenesulphonamide] gave a melting point of 146 to 148 °C. The molecule `COc1nccnc1NS(=O)(=O)c1ccc(F)c(Cl)c1Cl` [Example 207, 2,3-Dichloro-4-fluoro-N-(3-methoxy-2-pyrazinyl)benzenesulphonamide] came in with a melting point of 192 to 194 °C. Regarding `COc1nc(COc2cnccn2)cnc1NS(=O)(=O)c1cccc(Cl)c1Cl` [Example 140, 2,3-Dichloro-N-{3-methoxy-5-[(pyrazinyloxy)methyl]-2-pyrazinyl}benzenesulphonamide], the melting point is 155 °C (dec.). The molecule `O=S(=O)(Nc1ncc(Cl)nc1OCc1ccc(CO)cc1)c1cccc(Cl)c1Cl` [Example 109, 2,3-Dichloro-N-[5-chloro-3-(4-hydroxymethylphenylmethoxy)-2-pyrazinyl]benzenesulphonamide] returned a melting point of 177 to 178 °C. For the molecule `O=S(=O)(Nc1nccnc1OCc1cccnc1)c1cccc(Cl)c1Cl` [Example 29, 2,3-Dichloro-N-[3-(3-pyridinylmethoxy)-2-pyrazinyl]benzenesulphonamide], the melting point is 138 to 139 °C. In turn, `COc1nc(OCCN)cnc1NS(=O)(=O)c1cccc(Cl)c1Cl` [Example 115, N-[5-(2-Aminoethoxy)-3-methoxy-2-pyrazinyl]-2,3-dichlorobenzenesulphonamide] came in with a melting point of 200 to 205 °C. The molecule `COc1nc(C)cnc1NS(=O)(=O)c1cccc(Cl)c1` [Example 45, 3-Chloro-N-(3-methoxy-5-methyl-2-pyrazinyl)benezenesulphonamide] displayed a melting point of 123 to 125 °C. Take `COc1nc(N2CCOCC2)cnc1NS(=O)(=O)c1cccc(Cl)c1Cl` [Example 55, 2,3-Dichloro-N-[3-methoxy-5-(4-morpholinyl)-2-pyrazinyl]benzenesulphonamide]: the melting point fell in the range of 167 to 168 °C. `COC(=O)c1nccnc1NS(=O)(=O)c1cccc(Cl)c1Cl` [Example 124, 3-{[(2,3-Dichlorophenyl)sulphonyl]amino}pyrazine-2-carboxylic acid, methyl ester] had a melting point of 177 to 178 °C. As for `O=S(=O)(Nc1ncc(Cl)nc1OCc1cncc(Br)c1)c1cccc(Cl)c1Cl` [Example 142, N-{3-[(5-Bromo-3-pyridinyl)methoxy]-5-chloro-2-pyrazinyl}-2,3-dichlorobenzenesulphonamide], the figure is 199 to 201 °C.

The molecule `COC(=O)CSc1cnc(NS(=O)(=O)c2cccc(Cl)c2Cl)c(OC)n1` [Example 82, [5-(2,3-Dichlorobenzenesulphonylamino)-6-methoxy-2-pyrazinylsulphanyl]acetic acid methyl ester] registered a melting point of 152 to 153 °C. The value for `COCc1nc(OC)c(NS(=O)(=O)c2cccc(Cl)c2Cl)nc1Cl` [Example 129, 2,3-Dichloro-N-[6-chloro-3-methoxy-5-(methoxymethyl)-2-pyrazinyl]benzenesulphonamide] was 193 to 196 °C; that for `O=S(=O)(Nc1ncc(-c2ccncc2)nc1OCc1cccnc1)c1cccc(Cl)c1Cl` [Example 136, 2,3-Dichloro-N-[5-(4-pyridinyl)-3-(3-pyridinylmethoxy)-2-pyrazinyl]benzenesulphonaminde] was 210 °C (dec.).
